Converted amounts (≈) assume the structure as drawn. “Also recorded” adds a separate entry of the source.

In series [1] the test system is HepG2-CYP3A4 transfected cells. Briefly: Cell viability. The following applies: for Cytotoxicity (in words): 0-250 μM; for Concentration at which a significant decrease in cell viability begins: p < 0.05 vs 0 μM control. The format is cell-based.
The test system of the next series is liver. The settings on record: cited from earlier work; for Toxicity / liver damage in rats (in words): ref Patel et al., 2011.
Series [2] can be described thus: Cell viability. The format is cell-based. The settings on record: human; for viability: % Cell Viability.
Series [3] in a line: Cell viability. The format is cell-based. The following applies: human.
In the next series the test system is HepG2 wild type cells. Briefly: Cell viability. The format is cell-based. The following applies: 24 hr.
A short description of another series: Solubility in HBSS. The format is physicochemical.
A short description of a further series: DCPT hydrolysis in HBSS. The class given is physicochemical. The following applies: 250 μM in HBSS, 37 °C, after 24 hr.
Series [4] concerns the target T1, CYP3A4 (Homo sapiens, UniProt P08684).
The target of series [5] is T1, CYP3A4. Briefly: in vitro.
Series [6] has as its target T1, CYP3A4. Briefly: Testosterone 6β-hydroxylation in HepG2 wild type cells. The settings on record: 0-250 μM testosterone, 1 hr.

T1 sequence (P08684 whole entry): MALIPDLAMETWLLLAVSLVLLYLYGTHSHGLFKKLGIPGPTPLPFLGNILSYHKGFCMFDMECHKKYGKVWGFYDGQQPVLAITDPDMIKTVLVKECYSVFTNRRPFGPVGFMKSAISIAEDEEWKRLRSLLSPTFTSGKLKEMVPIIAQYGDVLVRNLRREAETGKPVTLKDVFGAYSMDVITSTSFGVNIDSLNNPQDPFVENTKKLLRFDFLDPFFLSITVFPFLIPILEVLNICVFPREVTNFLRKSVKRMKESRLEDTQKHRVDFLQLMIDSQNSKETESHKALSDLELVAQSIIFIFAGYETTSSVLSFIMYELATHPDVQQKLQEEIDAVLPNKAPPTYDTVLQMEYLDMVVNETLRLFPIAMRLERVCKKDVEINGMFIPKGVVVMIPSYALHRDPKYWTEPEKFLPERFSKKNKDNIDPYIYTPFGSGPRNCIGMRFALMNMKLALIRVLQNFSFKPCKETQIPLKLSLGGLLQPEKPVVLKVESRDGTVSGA

Consider `O=C1SCCN1c1cc(Cl)cc(Cl)c1` [2-DCTD, (3,5-dichlorophenyl)-2-thiazolidinone], for which the Cell viability in series [1] (100 μM, 24 hr) is 99.6 ± 4.6%; in [1] (250 μM, 24 hr) it was 37.3 ± 7.1%. Besides, in the series with liver, the “Toxicity / liver damage in rats (in words)” value (shortened to “Toxicity / liver damage”) is on record as “neither compound produced liver damage”.
On to `O=C1CSCN1c1cc(Cl)cc(Cl)c1` [4-DCTD, 3-(3,5-dichlorophenyl)-4-thiazolidinone], for which the CC50 at 24 h in the series “Cell viability [2]” (HepG2-CYP3A4 transfected cells) and in “Cell viability [3]” was > 250 µM each time. In addition, in [1] (24 hr), the “Cytotoxicity (in words)” value is listed as “not cytotoxic; also recorded: not toxic”. Moreover, the “Toxicity / liver damage” value in the series on liver is listed as “neither compound produced liver damage”.
Regarding `O=C1CSC(=O)N1c1cc(Cl)cc(Cl)c1` [DCPT, 3-(3,5-dichlorophenyl)-2,4-thiazolidinedione], the viability in the series “Cell viability [2]” (100 μM DCPT alone, 24 hr) turned out to be 82.6 ± 2.8%; in the series “Cell viability [2]” (100 μM DEX pretreatment 24 hr, then 100 μM DCPT 24 hr), 73 ± 1%; in the series “Cell viability [2]” (250 μM DCPT alone, 24 hr) it was 21.3 ± 3.2%. In addition, the results for the CC50 at 24 h in the series “Cell viability [2]” (HepG2-CYP3A4 transfected cells) and in the series “Cell viability [3]” were 160 ± 5.9 µM and 233 ± 19.7 µM, respectively. Also, the “Reduction of cell viability” value was 80% in [1] (250 μM DCPT, 24 hr) and “approximately 60%” in the series with HepG2 wild type cells (highest concentration (250 μM) DCPT). Also, the “Concentration at which a significant decrease in cell viability begins” value in series [1] (24 hr) stood at 100 µM. The “Decrease in cell viability” value in series [1] (DEX pretreatment followed by 100 μM DCPT, compared to controls) was “approximately 10%”. Besides, the concentration in solution in the series “Solubility in HBSS” (HBSS, aqueous buffer) (solubility) came to 250 µM (≈ 65.5 µg/mL). Further, the DCPT remaining entry in the series “DCPT hydrolysis in HBSS” is recorded as “less than 50%”. In addition, the “Hepatotoxicity in rats (in words)” value in the series on liver (Fischer 344 rats, ref Kennedy et al., 2003, Patel et al., 2008) was “hepatotoxic”.
For `O=C(O)CSC(=O)Nc1cc(Cl)cc(Cl)c1` [DCTA, S-(3,5-dichlorophenyl)aminocarbonyl thioglycolic acid], the CC50 at 24 h in the series “Cell viability [2]” (HepG2-CYP3A4 transfected cells) is 67.3 ± 8.1 µM; in “Cell viability [3]” it was 65.3 ± 3.9 µM. Besides, in series [1] (24 hr), the “Concentration at which a significant decrease in cell viability begins” value was found to be 50 µM. Also, the “Toxicity / liver damage” value in the series with liver is given as “toxic”.
With `O=C=Nc1cc(Cl)cc(Cl)c1` [DPI, 3,5-dichlorophenyl isocyanate], the CC50 at 24 h in the series “Cell viability [2]” and in the series “Cell viability [3]” was > 250 µM each time. In addition, the viability at 24 h, 250 μM in the series “Cell viability [2]” and in the series “Cell viability [3]” was ≥ 50% throughout. In addition, the “Concentration at which a significant decrease in cell viability begins” value in [1] (24 hr) came to 100 µM; with HepG2 wild type cells (p < 0.05 vs 0 μM control), 25 µM.
Take `CC1SC(=O)N(c2cc(Cl)cc(Cl)c2)C1=O` (centres unmarked) [DPMT, 3-(3,5-dichlorophenyl)-5-methyl-2,4-thiazolidinedione]: the CC50 at 24 h in “Cell viability [2]” (HepG2-CYP3A4 transfected cells) and in “Cell viability [3]” was > 250 µM in each case. Further, the “Cytotoxicity (in words)” value in [1] (24 hr) is “no observed decrease in viability; also recorded: non-toxic”. Also, in “Solubility in HBSS” (evident at 250 μM), the “Solubility in HBSS (in words)” value is on record as “issues regarding the solubility”. The “Toxicity / liver damage” value with liver was “hepatotoxic”.
Consider `CC(=O)N1CCN(c2ccc(OCC3COC(Cn4ccnc4)(c4ccc(Cl)cc4Cl)O3)cc2)CC1` (centres unmarked) [KCZ, ketoconazole, reference compound], for which the viability in “Cell viability [2]” amounted to 106 ± 4.5%.
For the molecule `C[C@]12CC[C@H]3[C@@H](CCC4=CC(=O)CC[C@@]43C)[C@@H]1CC[C@@H]2O` [Testosterone], the “Vmax of testosterone 6β-hydroxylation” value on CYP3A4 [4] stood at 92.7 ± 13.3 pmol/min/mg protein. Moreover, the Km at CYP3A4 [5] turned out to be 81.1 ± 5.7 µM. Besides, the 6β-hydroxylation of testosterone entry at CYP3A4 [6] is “no detectable”.
